experiment: Encapsulation rate of mRNA-loaded lipid nanoparticles (Ribogreen kit); type: physicochemical; settings: Table 1; Luciferase mRNA LNP; cationic lipid:DSPC:cholesterol:DMG-PEG2000 50:10:38.5:1.5 molar
Description: (§1) Luciferase mRNA was diluted in 10-100 mM citrate buffer at pH 4.0; the lipid components (cationic lipids shown in the present disclosure: DSPC:cholesterol:PEG lipids (DMG-PEG2000)) were dissolved in ethanol at a molar ratio of 50:10:38.5:1.5.
(§2) 3 mL of a mRNA buffer and 1 mL of a lipid solution were loaded into two 5 mL syringes respectively, and the syringes were installed on a microfluidic syringe pump. Chips were connected to the syringes and syringe pump flow rate was set. Clicking the start button of the syringe pump caused injection into the chip at a flow rate ratio of 3:1. Under observation of the color of the product at the exit of the chip, after discarding the first 5 milky white droplets (about 100 μL), the back-end sample was collected into an EP tube. The collected product was placed in a dialysis bag and dialyzed for 6 h (MWCO: 100 KDa) in 10 mM PBS (pH 7.4) intervals. Subsequently, after being concentrated by ultrafiltration to the desired concentration, the lipid nanoparticles were filtered through a 0.22 μm sterile filter and then stored at 4° C.
(§3) Tests were performed to calculate the encapsulation rate of the products according to the instructions of Ribogreen kit. Particle size and polydispersity index (PDI) detection as well as zeta potential analysis was performed on a Malvern Zetasizer nano instrument using standard assays.

SMILES | Encapsulation rate (%)
CCCCCCCCC(CCCCCCCC)OC(=O)CCCCCCCN(CCO)CCCCCCC(=O)OCCOCCCCCCC [Compound 14] | 95.7%
CCCCCCCCOCC(C)C(=O)OCCCCCN(CCCCCCCC(=O)OC(CCCCCCCC)CCCCCCCC)CCN(CC)CC (stereo not shown) [Compound 28] | 95.9%
CCCCCCCCCCSCCC(=O)OCCCCCN(CCO)CCCCCCCC(=O)OC(CCCCCCCC)CCCCCCCC [Compound 29] | 95.6%
CCCCCCCCCCSCC(C)C(=O)OCCCCCN(CCO)CCCCCCCC(=O)OC(CCCCCCCC)CCCCCCCC (stereo not shown) [Compound 30] | 95.7%
CCCCCCCCSCC(CC)C(=O)OCCCCCN(CCO)CCCCCCCC(=O)OC(CCCCCCCC)CCCCCCCC (stereo not shown) [Compound 36] | 93.9%
CCCCCCCCCCSCCOC(=O)CCCCCCCN(CCO)CCCCCCCC(=O)OC(CCCCCCCC)CCCCCCCC [Compound 41] | 94.9%
CCCCCCCCSC(CCCCCC)C(=O)OCCCCCCN(CCO)CCCCCCOC(=O)C(CCCCCC)CCCCCCCC (stereo not shown) [Compound 46] | 95.6%

Results, then the molecule that gave them:

Encapsulation rate (%) | SMILES
92.5% | CCCCCCCCSCC(C)C(=O)OCCCCCN(CCCO)CCCCCCCC(=O)OC(CCCCCCCC)CCCCCCCC (stereo not shown) [Compound 48]
91.1% | CCCCCCCCSCCOC(=O)CCCCCCCN(CCCCCCCC(=O)OC(CCCCCCCC)CCCCCCCC)CCN(C)C [Compound 55]
94.1% | CCCCCCCCCCSCCC(=O)OCCCCCN(CCCCCCCC(=O)OC(CCCCCCCC)CCCCCCCC)CCN(C)C [Compound 57]

experiment: Particle size, PDI and zeta potential of mRNA-loaded lipid nanoparticles (Malvern Zetasizer nano); type: physicochemical; settings: Table 1; Luciferase mRNA LNP; cationic lipid:DSPC:cholesterol:DMG-PEG2000 50:10:38.5:1.5 molar
Description: as §1, §2, §3

SMILES | PDI | Particle size (nm) | Zeta potential (mV)
CCCCCCCCC(CCCCCCCC)OC(=O)CCCCCCCN(CCO)CCCCCCC(=O)OCCOCCCCCCC [Compound 14] | 0.22 | 119.0 nm | −3.27 mV
CCCCCCCCOCC(C)C(=O)OCCCCCN(CCCCCCCC(=O)OC(CCCCCCCC)CCCCCCCC)CCN(CC)CC (stereo not shown) [Compound 28] | 0.04 | 127.6 nm | 5.29 mV
CCCCCCCCCCSCCC(=O)OCCCCCN(CCO)CCCCCCCC(=O)OC(CCCCCCCC)CCCCCCCC [Compound 29] | 0.03 | 105.5 nm | −1.31 mV
CCCCCCCCCCSCC(C)C(=O)OCCCCCN(CCO)CCCCCCCC(=O)OC(CCCCCCCC)CCCCCCCC (stereo not shown) [Compound 30] | 0.11 | 121.2 nm | −0.26 mV
CCCCCCCCSCC(CC)C(=O)OCCCCCN(CCO)CCCCCCCC(=O)OC(CCCCCCCC)CCCCCCCC (stereo not shown) [Compound 36] | 0.11 | 98.4 nm | 0.55 mV
CCCCCCCCCCSCCOC(=O)CCCCCCCN(CCO)CCCCCCCC(=O)OC(CCCCCCCC)CCCCCCCC [Compound 41] | 0.17 | 123.4 nm | −7.02 mV
CCCCCCCCSC(CCCCCC)C(=O)OCCCCCCN(CCO)CCCCCCOC(=O)C(CCCCCC)CCCCCCCC (stereo not shown) [Compound 46] | 0.11 | 101.3 nm | −4.12 mV

Now from value to molecule:

PDI | Particle size (nm) | Zeta potential (mV) | SMILES
0.10 | 94.2 nm | −0.14 mV | CCCCCCCCSCC(C)C(=O)OCCCCCN(CCCO)CCCCCCCC(=O)OC(CCCCCCCC)CCCCCCCC (stereo not shown) [Compound 48]
0.13 | 102.3 nm | 7.37 mV | CCCCCCCCSCCOC(=O)CCCCCCCN(CCCCCCCC(=O)OC(CCCCCCCC)CCCCCCCC)CCN(C)C [Compound 55]
0.24 | 122.8 nm | 7.09 mV | CCCCCCCCCCSCCC(=O)OCCCCCN(CCCCCCCC(=O)OC(CCCCCCCC)CCCCCCCC)CCN(C)C [Compound 57]

Source: patent publication US12325676B2, “Cationic lipid compound and composition for delivery of nucleic acids and use thereof” (Shenzhen Rhegen Biotechnology Co., Ltd., priority 2022, dated 2025)
